Reference: patent US10399939B2, “Tetrahydronaphthalene estrogen receptor modulators and uses thereof” (Genentech, Inc., priority 2015, dated 2019)

Target: ER-alpha (WT) (Homo sapiens (Human), UniProt P03372)
Test: Breast Cancer Cell ERa High Content Fluorescence Imaging Degradation Assay (ER-alpha MCF7 HCS)
Assay type: cell-based
Settings: for EC50 / ER-alpha (WT) MCF7 HCS (S inf) / ER-alpha (WT) MCF7 HCS (EC50): MCF7 breast cancer cells; for EC50 / ER-alpha (WT) MCF7 HCS (EC50): 4 hours incubation, inflexion point of curve; for ER-alpha (WT) MCF7 HCS (S inf): plateau of the maximal effect (ERa degradation), DMSO and 5 nM Fulvestrant define 0% and 100% changes in ESR1
Procedure: Example 901: Breast Cancer Cell ERa High Content Fluorescence Imaging Degradation Assay
MCF7 breast cancer cells were seeded on day 1 at a density of 10,000 cells per well in 384 well poly-lysine coated tissue culture plate (Greiner # T-3101-4), in 50 µL/well RPMI (phenol red free), 10% FBS (Charcoal stripped), containing L-glutamine. […] Compounds and controls were dispensed using a Labcyte Echo acoustic dispenser to dispense compounds with a pre-defined serial dilution (1.8×, 10 point, in duplicate) and appropriate backfill and control compounds (final total volume transferred was 417.5 nL and compound dispense volume ranges from 2.5 nL to 417.5 nL; 0.84% DMSO (v/v) final), ultimately producing a concentration range from 0.05 nM to 835 nM. Cell plates were incubated at 37° C., for 4 hours. Fixation and permeabilization were carried out using a Biotek EL406 plate washer and dispenser as follows. Cells were fixed by addition of 15 μL of 16% paraformaldehyde (Electron Microscopy Sciences #15710-S) directly to the 50 μL cell culture medium in each well using the peristaltic pump 5 μL cassette on a Biotek EL406 (final concentration of formaldehyde was 3.7% w/v). Samples were incubated 30 minutes. Well contents was aspirated and 50 μL/well of Phosphate Buffered Saline (PBS) containing 0.5% w/v bovine serum albumen, 0.5% v/v Triton X-100 (Antibody Dilution Buffer) was added to each well. Samples were incubated for 30 minutes. Well contents were aspirated and washed 3 times with 100 μL/well of PBS. Immunofluorescence staining of estrogen receptor alpha (ESR1) was carried out using a Biotek EL406 plate washer and dispenser as follows. The well supernatant was aspirated from the wells and 25 μL/well of anti-ESR1 mAb (F10) (Santa Cruz sc-8002) diluted 1:1000 in Antibody Dilution Buffer was dispensed. Samples were incubated for 2 hours at room temperature. Samples were washed 4 times with 100 μL/well of PBS. 25 μL (microliters)/well of secondary antibody solution (Alexafluor® 488 conjugate anti-mouse IgG (LifeTechnologies #A21202) diluted 1:1000 and Hoechst 33342 1 μg/ml diluted in Antibody Dilution Buffer) were dispensed into each well. Samples were incubated for 2 hours at room temperature. Samples were washed 3 times with 100 μL/well of PBS using a Biotek EL406. Quantitative fluorescence imaging of ESR1 was carried out using a Cellomics Arrayscan V® (Thermo). Fluorescence images of the samples (Channel 1: XF53 Hoechst (DNA stain); Channel 2: XF53 FITC (ESR1 stain)) were acquired using a Cellomics VTI Arrayscan using the Bioapplication “Compartmental Analysis” using the auto-exposure (based on DMSO control wells) setting “peak target percentile” set to 25% target saturation for both channels. Channel 1 (DNA stain) was used to define the nuclear region (Circ). Measurements of “Mean_CircAvgIntCh2”, which is the Alexafluor 488 fluorescence intensity (ESR1) within the nuclear region, was measured on a per cell basis and averaged over all the measured cells. Data analysis was carried out using Genedata Screener Software, with DMSO and 5 nM Fulvestrant treated samples being used to define the 0% and 100% changes in ESR1. The “Robust Fit” method was used to define the inflexion point of curve (EC50) and the plateau of the maximal effect (Sinf).

Sequence of ER-alpha (WT) (P03372 whole entry): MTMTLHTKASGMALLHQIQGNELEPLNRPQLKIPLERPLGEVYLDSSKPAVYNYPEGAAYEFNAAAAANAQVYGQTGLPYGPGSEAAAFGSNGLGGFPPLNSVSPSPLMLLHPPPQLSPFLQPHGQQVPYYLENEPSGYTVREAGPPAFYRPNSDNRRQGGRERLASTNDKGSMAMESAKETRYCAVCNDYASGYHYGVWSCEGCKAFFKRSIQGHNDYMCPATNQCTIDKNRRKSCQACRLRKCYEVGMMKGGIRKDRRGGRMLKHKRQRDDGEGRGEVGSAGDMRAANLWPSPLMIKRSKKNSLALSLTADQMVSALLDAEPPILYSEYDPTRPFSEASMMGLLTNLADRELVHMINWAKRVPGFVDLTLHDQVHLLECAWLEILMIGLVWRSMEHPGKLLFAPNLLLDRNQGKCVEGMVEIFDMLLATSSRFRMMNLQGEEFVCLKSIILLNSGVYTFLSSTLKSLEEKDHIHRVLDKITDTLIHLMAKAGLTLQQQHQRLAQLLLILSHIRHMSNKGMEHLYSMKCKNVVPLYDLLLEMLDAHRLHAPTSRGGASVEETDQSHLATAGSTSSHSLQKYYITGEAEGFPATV

SMILES | EC50 | ER-alpha (WT) MCF7 HCS (S inf) | degradation activities measured as ER-alpha MCF7 HCS Sinf (%) values (in words) (MCF7 cells) | ER-alpha (WT) MCF7 HCS (EC50)
N#Cc1ccc([C@H]2CCc3cc(O)ccc3[C@H]2c2ccc(OCCN3CC(CF)C3)cc2)cc1 [Compound 133, 4-((1R,2S)-1-(4-(2-(3-(fluoromethyl)azetidin-1-yl)ethoxy)phenyl)-6-hydroxy-1,2,3,4-tetrahydronaphthalen-2-yl)benzonitrile] | 53 nM | −30% |  | 
CN1CC(CCOc2ccc([C@@H]3c4ccc(O)cc4CC[C@@H]3c3ccccc3)cc2)C1 (stereo in doubt) [A, (5R,6S)-5-(4-(2-(1-methylazetidin-3-yl)ethoxy)phenyl)-6-phenyl-5,6,7,8-tetrahydronaphthalen-2-ol, reference compound] | 19 nM | −58% | low | 
Oc1ccc2c(c1)CC[C@H](c1ccccc1)[C@@H]2c1ccc(NCCN2CC[C@@H](CF)C2)cc1 [Compound 139, (5R,6S)-5-(4-((2-((R)-3-(fluoromethyl)pyrrolidin-1-yl)ethyl)amino)phenyl)-6-phenyl-5,6,7,8-tetrahydronaphthalen-2-ol] | 228 nM | −50% |  | 
Oc1ccc2c(c1)CC[C@H](c1ccccc1)[C@@H]2c1ccc(OCCN2CC(C(F)F)C2)cc1 [Compound 118, (5R,6S)-5-(4-(2-(3-(difluoromethyl)azetidin-1-yl)ethoxy)phenyl)-6-phenyl-5,6,7,8-tetrahydronaphthalen-2-ol] | 0.184 nM | −93.6% |  | 
Oc1ccc2c(c1)CC[C@H](c1ccccc1)[C@@H]2c1ccc(OCCN2CC(CF)C2)nc1 [Compound 127, (5S,6S)-5-(6-(2-(3-(fluoromethyl)azetidin-1-yl)ethoxy)pyridin-3-yl)-6-phenyl-5,6,7,8-tetrahydronaphthalen-2-ol] | 0.0461 nM | −96.5% |  | 
Oc1ccc2c(c1)CC[C@H](C1CCC(F)(F)CC1)[C@@H]2c1ccc(OCCN2CC(CF)C2)cc1 [Compound 110, (5R,6R)-6-(4,4-difluorocyclohexyl)-5-(4-(2-(3-(fluoromethyl)azetidin-1-yl)ethoxy)phenyl)-5,6,7,8-tetrahydronaphthalen-2-ol] | 0.177 nM | −98.2% |  | 
Oc1ccc2c(c1)CC[C@@H](c1ccccc1)[C@H]2c1ccc(NC2CN(CCCF)C2)cc1 [Compound 131, (5S,6R)-5-(4-((1-(3-fluoropropyl)azetidin-3-yl)amino)phenyl)-6-phenyl-5,6,7,8-tetrahydronaphthalen-2-ol] | 13.8 nM | −35% |  | 
Oc1ccc2c(c1)CC[C@H](c1ccccc1)[C@@H]2c1ccc(OCCN2CC(CCl)C2)cc1 [Compound 112, (5R,6S)-5-(4-(2-(3-(chloromethyl)azetidin-1-yl)ethoxy)phenyl)-6-phenyl-5,6,7,8-tetrahydronaphthalen-2-ol] | 50.9 nM | −35% |  | 

More lines, now with the values ahead:

EC50 | ER-alpha (WT) MCF7 HCS (S inf) | degradation activities measured as ER-alpha MCF7 HCS Sinf (%) values (in words) (MCF7 cells) | ER-alpha (WT) MCF7 HCS (EC50) | SMILES
0.451 nM | −99.2% |  |  | Oc1ccc2c(c1)CCC1(CCCC1)[C@@H]2c1ccc(OCCN2CC(CF)C2)cc1 [Compound 122, (R)-1′-(4-(2-(3-(fluoromethyl)azetidin-1-yl)ethoxy)phenyl)-3′,4′-dihydro-1′H-spiro[cyclopentane-1,2′-naphthalen]-6′-ol]
0.977 nM | −97% |  |  | Oc1ccc2c(c1)CC[C@H](c1ccc(F)cc1)[C@@H]2c1ccc(OCCN2CC(CF)C2)cc1 [Compound 106, (1R,2S)-1-[4-[2-[3-(fluoromethyl)azetidin-1-yl]ethoxy]phenyl]-2-(4-fluorophenyl)tetralin-6-ol]
15.6 nM | −95% |  |  | Oc1ccc2c(c1)CC[C@@H](c1ccccc1)[C@H]2c1c(F)cc(OCCN2CC(CF)C2)cc1F [Compound 104, (1R,2R)-1-[2,6-difluoro-4-[2-[3-(fluoromethyl)azetidin-1-yl]ethoxy]phenyl]-2-phenyl-tetralin-6-ol]
 |  |  | >0.10 µmol | C[C@H](CN1CC[C@@H](CF)C1)Oc1ccc([C@@H]2c3ccc(O)cc3CC[C@@H]2c2ccccc2)cc1 [Compound 125, (5R,6S)-5-(4-(((R)-1-((R)-3-(fluoromethyl)pyrrolidin-1-yl)propan-2-yl)oxy)phenyl)-6-phenyl-5,6,7,8-tetrahydronaphthalen-2-ol]
186 nM | −80% |  |  | Oc1ccc2c(c1)CC[C@H](c1ccccc1)[C@@H]2c1ccc(NCCN2CC(CF)C2)cc1 [Compound 137, (5R,6S)-5-(4-((2-(3-(fluoromethyl)azetidin-1-yl)ethyl)amino)phenyl)-6-phenyl-5,6,7,8-tetrahydronaphthalen-2-ol]
47 nM | −55% |  |  | Oc1ccc2c(c1)CC[C@H](c1ccccc1)[C@@H]2c1ccc(OCCN2CCC(CF)C2)cc1 (stereo partly drawn) [Compound 111, (5R,6S)-5-(4-(2-(3-(fluoromethyl)pyrrolidin-1-yl)ethoxy)phenyl)-6-phenyl-5,6,7,8-tetrahydronaphthalen-2-ol]
12.5 nM | −84% |  |  | Oc1ccc2c(c1)CC[C@@H](c1ccccc1)[C@H]2c1ccc(OCCN2CC(CF)C2)nc1 [Compound 128, (5R,6R)-5-(6-(2-(3-(fluoromethyl)azetidin-1-yl)ethoxy)pyridin-3-yl)-6-phenyl-5,6,7,8-tetrahydronaphthalen-2-ol]
14.6 nM | −97% |  |  | Oc1ccc2c(c1)CC[C@@H](C1CCC(F)(F)CC1)[C@H]2c1ccc(OCCN2CC(CF)C2)cc1 [Compound 108, (5S,6S)-6-(4,4-difluorocyclohexyl)-5-(4-(2-(3-(fluoromethyl)azetidin-1-yl)ethoxy)phenyl)-5,6,7,8-tetrahydronaphthalen-2-ol]
 |  |  | >0.10 µmol | Oc1ccc2c(c1)CC[C@@H](c1ccccc1)[C@H]2c1ccc(OCCN2CC(C(F)F)C2)cc1 [Compound 116, (5S,6R)-5-(4-(2-(3-(difluoromethyl)azetidin-1-yl)ethoxy)phenyl)-6-phenyl-5,6,7,8-tetrahydronaphthalen-2-ol]
0.164 nM | −95.2% |  |  | Oc1ccc2c(c1)CC[C@@H](C1CCOCC1)[C@H]2c1ccc(OCCN2CC(CF)C2)cc1 [Compound 109, (5S,6S)-5-(4-(2-(3-(fluoromethyl)azetidin-1-yl)ethoxy)phenyl)-6-(tetrahydro-2H-pyran-4-yl)-5,6,7,8-tetrahydronaphthalen-2-ol]
0.203 nM | −89.89% |  |  | Oc1ccc2c(c1)CC[C@@H](c1ccccc1)[C@H]2c1ccc(NCCN2CC(CF)C2)cc1 [Compound 138, (5S,6R)-5-(4-((2-(3-(fluoromethyl)azetidin-1-yl)ethyl)amino)phenyl)-6-phenyl-5,6,7,8-tetrahydronaphthalen-2-ol]
